According to patent US20260108546A1 (ELI LILLY AND COMPANY, priority 2024, published 2026):
Counter-ions that a name gives are not always drawn.

Target: T1, hGIP-R (Homo sapiens, UniProt P48546)
T1 construct: expressed in transfected cells; host or cells: HEK-293 clonal cell lines
T1 sequence (P48546 22-466): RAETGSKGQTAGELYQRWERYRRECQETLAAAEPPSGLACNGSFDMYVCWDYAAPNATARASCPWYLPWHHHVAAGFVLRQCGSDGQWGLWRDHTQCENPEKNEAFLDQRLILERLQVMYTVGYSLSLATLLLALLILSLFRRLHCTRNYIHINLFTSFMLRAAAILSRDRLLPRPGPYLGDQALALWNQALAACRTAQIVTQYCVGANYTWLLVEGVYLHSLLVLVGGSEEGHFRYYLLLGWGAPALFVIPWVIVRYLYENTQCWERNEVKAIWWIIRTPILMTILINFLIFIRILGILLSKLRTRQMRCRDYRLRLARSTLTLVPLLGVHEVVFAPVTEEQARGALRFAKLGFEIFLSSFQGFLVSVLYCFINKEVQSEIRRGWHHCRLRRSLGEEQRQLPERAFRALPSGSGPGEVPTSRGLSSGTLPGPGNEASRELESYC
Experiment: Functional hGIP-R Assay (cAMP formation, HTRF)
Type: cell-based
Conditions: for Emax: cAMP efficacy, percent of maximal response to GIP(1-42)OH, 37° C., 0.1% bovine casein, arithmetic mean ± SEM; for EC50: cAMP potency, HEK-293 cells expressing hGIP-R, incubated at 37° C. in the presence of 0.1% bovine casein, geometric mean, read-out: Human GIP-R EC50, nM (SEM, n)
How it was run: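 HEK-293 cells expressing hGIP-R were given a 20-point compound series in DMEM with 0.1% casein, 250 μM IBMX, 1% DMSO, 30 min at 37 °C. cAMP was read by HTRF against a standard curve, expressed as % of human GIP (1-42) OH maximum; EC50 and Emax came from four-parameter fits.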

Emax	EC50	Structure (SMILES)
129%	0.0409 nM	[2H]C([2H])([2H])n1cc(C[C@H](C(=O)NC(C)(C)Cn2nc(C(F)(F)F)cc2-c2ccc(C(C)(C)O)nc2)N2CC[C@@]3(C[C@@H]3c3ccc(-c4cnc5nc(COC)cn5c4)nc3C3CC3)C2=O)cn1 [Example 192, (R)-2-((1R,3R)-1-(2-cyclopropyl-6-(2-(methoxymethyl)imidazo[1,2-a]pyrimidin-6-yl)pyridin-3-yl)-4-oxo-5-azaspiro[2.4]heptan-5-yl)-N-(1-(5-(6-(2-hydroxypropan-2-yl)pyridin-3-yl)-3-(trifluoromethyl)-1H-pyrazol-1-yl)-2-methylpropan-2-yl)-3-(1-(methyl-d3)-1H-pyrazol-4-yl)propanamide]
88.8%	2.36 nM	[2H]C([2H])([2H])n1cc(C[C@H](C(=O)NC(C)(C)Cn2nc(C(F)(F)F)cc2-c2ccc(C(C)(C)OP(=O)(O)O)nc2)N2CC[C@@]3(C[C@@H]3c3ccc(-c4cnc5nn(C)cc5c4)cc3Cl)C2=O)cn1 [Example 195, 2-(5-(1-(2-((R)-2-((1S,3R)-1-(2-Chloro-4-(2-methyl-2H-pyrazolo[3,4-b]pyridin-5-yl)phenyl)-4-oxo-5-azaspiro[2.4]heptan-5-yl)-3-(1-(methyl-d3)-1H-pyrazol-4-yl)propanamido)-2-methylpropyl)-3-(trifluoromethyl)-1H-pyrazol-5-yl)pyridin-2-yl)propan-2-yl dihydrogen phosphate, ammonia salt]
95.7%	0.601 nM	Cc1nc(-c2cnc3nc(C4CC4)cn3c2)ccc1[C@H]1C[C@@]12CCN([C@H](Cc1cnn(C(F)F)c1)C(=O)NC(C)(C)Cn1nc(C(F)(F)F)cc1-c1cnc(C(C)(C)OP(=O)(O)O)nc1)C2=O [Example 196, 2-(5-(1-(2-((R)-2-((1R,3R)-1-(6-(2-Cyclopropylimidazo[1,2-a]pyrimidin-6-yl)-2-methylpyridin-3-yl)-4-oxo-5-azaspiro[2.4]heptan-5-yl)-3-(1-(difluoromethyl)-1H-pyrazol-4-yl)propanamido)-2-methylpropyl)-3-(trifluoromethyl)-1H-pyrazol-5-yl)pyrimidin-2-yl)propan-2-yl dihydrogen phosphate, ammonia salt]
119%	0.66 nM	Cc1nc(-c2cnc3nc(C4CC4)cn3c2)ccc1[C@H]1C[C@@]12CCN([C@H](Cc1cnn(C(F)F)c1)C(=O)NC(C)(C)Cn1nc(C(F)(F)F)cc1-c1ccc(C(C)(C)OP(=O)(O)O)nc1)C2=O [Example 197, 2-(5-(1-(2-((R)-2-((1R,3R)-1-(6-(2-Cyclopropylimidazo[1,2-a]pyrimidin-6-yl)-2-methylpyridin-3-yl)-4-oxo-5-azaspiro[2.4]heptan-5-yl)-3-(1-(difluoromethyl)-1H-pyrazol-4-yl)propanamido)-2-methylpropyl)-3-(trifluoromethyl)-1H-pyrazol-5-yl)pyridin-2-yl)propan-2-yl dihydrogen phosphate, ammonia salt]

Further lines, the molecule ahead of its results:

Structure (SMILES)	Emax	EC50
[2H]C([2H])([2H])n1cc(C[C@H](C(=O)NC(C)(C)Cn2nc(C(F)(F)F)cc2-c2cnc(C(C)(C)O)nc2)N2CC[C@@]3(C[C@@H]3c3ccc(-c4cnc5nn(C6CC6)cc5c4)nc3C)C2=O)cn1 [Example 191, (R)-2-((1R,3R)-1-(6-(2-cyclopropyl-2H-pyrazolo[3,4-b]pyridin-5-yl)-2-methylpyridin-3-yl)-4-oxo-5-azaspiro[2.4]heptan-5-yl)-N-(1-(5-(2-(2-hydroxypropan-2-yl)pyrimidin-5-yl)-3-(trifluoromethyl)-1H-pyrazol-1-yl)-2-methylpropan-2-yl)-3-(1-(methyl-d3)-1H-pyrazol-4-yl)propanamide]	78.5 ± 0.865%	2.89 nM
[2H]C([2H])([2H])n1cc(C[C@H](C(=O)NC(C)(C)Cn2nc(C(F)(F)F)cc2-c2cnc(C(C)(C)O)nc2)N2CC[C@@]3(C[C@@H]3c3ccc(-c4cnc5nn(C)cc5c4)cc3Cl)C2=O)cn1 [Example 193, (R)-2-((1S,3R)-1-(2-chloro-4-(2-methyl-2H-pyrazolo[3,4-b]pyridin-5-yl)phenyl)-4-oxo-5-azaspiro[2.4]heptan-5-yl)-N-(1-(5-(2-(2-hydroxypropan-2-yl)pyrimidin-5-yl)-3-(trifluoromethyl)-1H-pyrazol-1-yl)-2-methylpropan-2-yl)-3-(1-(methyl-d3)-1H-pyrazol-4-yl)propanamide]	85.5 ± 0.117%	1.33 nM
[2H]C([2H])([2H])n1cc(C[C@H](C(=O)NC(C)(C)Cn2nc(C(F)(F)F)cc2-c2ccc(C(C)(C)O)nc2)N2CC[C@@]3(C[C@@H]3c3ccc(-c4cnc5nn(C)cc5c4)cc3Cl)C2=O)cn1 [Example 194, (R)-2-((1S,3R)-1-(2-chloro-4-(2-methyl-2H-pyrazolo[3,4-b]pyridin-5-yl)phenyl)-4-oxo-5-azaspiro[2.4]heptan-5-yl)-N-(1-(5-(6-(2-hydroxypropan-2-yl)pyridin-3-yl)-3-(trifluoromethyl)-1H-pyrazol-1-yl)-2-methylpropan-2-yl)-3-(1-(methyl-d3)-1H-pyrazol-4-yl)propanamide]	64.1 ± 0.489%	0.567 nM
[2H]C([2H])([2H])n1cc(C[C@H](C(=O)NC(C)(C)Cn2nc(C(F)(F)F)cc2-c2cnc(C(C)(C)OP(=O)(O)O)nc2)N2CC[C@@]3(C[C@@H]3c3ccc(-c4cnc5nn(C)cc5c4)cc3Cl)C2=O)cn1 [Example 198, 2-(5-(1-(2-((R)-2-((1S,3R)-1-(2-Chloro-4-(2-methyl-2H-pyrazolo[3,4-b]pyridin-5-yl)phenyl)-4-oxo-5-azaspiro[2.4]heptan-5-yl)-3-(1-(methyl-d3)-1H-pyrazol-4-yl)propanamido)-2-methylpropyl)-3-(trifluoromethyl)-1H-pyrazol-5-yl)pyrimidin-2-yl)propan-2-yl dihydrogen phosphate, ammonia salt]	90.3%	1.81 nM
